We go through 45 molecules from ChEMBL document CHEMBL3872213, “Synthesis and biological activity of furoxan derivatives against Mycobacterium tuberculosis” (Eur J Med Chem, 2016).

In brackets after ≈: the same amount, converted by molar mass.

Data set [1] has as its system Mycobacterium tuberculosis. Kind of data set: microbe, parasite or virus in culture. Conditions: H37Rv ATCC 27294, 168 h.
Description: Antitubercular activity against Mycobacterium tuberculosis H37Rv ATCC 27294 after 7 days by REMA method
A short description of data set [2]: Induction of nitric oxide production assessed as nitrite level at 10^-4M measured after 1 hr in presence 1:50 molar excess of L-cysteine by Griess reagent based spectrophotometer relative to control. The conditions noted are these: 100 µM. The format is physicochemical. (In general: The Griess reaction detects nitrite, a stable product of nitric oxide.)
A short description of data set [3]: n-octanol-water partition coefficient, log P of the compound by HPLC method. It is filed as physicochemical.
In data set [4] the test system is Mycobacterium tuberculosis. It is filed as functional. Conditions: H37Rv ATCC 27294, 168 h.
Data set [5] can be described thus: Cytotoxicity against mouse J774A.1 cells measured after 24 hrs by resazurin based fluorescence method. The format is toxicity, J774.A1. (In general: The colour change of resazurin is a common sign of viable cells or microbes.)
Data set [6] in a line: in vitro. Conditions: mouse, J774A.1 cells.
Description: Selectivity index, ratio of IC50 for mouse J774A.1 cells to MIC90 for Mycobacterium tuberculosis H37Rv ATCC 27294
Data set [7] is described as follows: in vitro. The conditions noted are these: human, MRC5 cells.
Description: Selectivity index, ratio of IC50 for human MRC5 cells to MIC90 for Mycobacterium tuberculosis H37Rv ATCC 27294
The subject of data set [8] is Mycobacterium tuberculosis. It is filed as functional. The conditions noted are these: H37Rv ATCC 27294, 168 h. This is another data set of the same source.
Data set [9] can be described thus: Cytotoxicity against human MRC5 cells measured after 24 hrs by resazurin based fluorescence method. It is filed as toxicity, cell-based.
Data set [10] concerns Mycobacterium tuberculosis. It is filed as functional. Conditions: H37Rv.
A short description of data set [11]: Chemical stability in pH 5 PBS buffer assessed as compound degradation after 24 hrs by HPLC-MS/MS method. The format is physicochemical. Conditions: read-out: Drug degradation.
The nature of data set [12]: Chemical stability in pH 1 PBS buffer assessed as compound degradation after 1 hr by HPLC-MS/MS method. It is filed as physicochemical. The conditions noted are these: read-out: Drug degradation.
Data set [13] can be described thus: Chemical stability in pH 5 PBS buffer after 6 hrs by HPLC-MS/MS method. The format is physicochemical. Conditions: pH 5, 6 h.
Data set [14] in a line: Chemical stability in pH 7.4 PBS buffer assessed as compound degradation after 24 hrs by HPLC-MS/MS method. The format is physicochemical. The conditions noted are these: read-out: Drug degradation.
Data set [15] is described as follows: Chemical stability in pH 9 PBS buffer assessed as compound degradation after 1 hr by HPLC-MS/MS method. The format is physicochemical. Conditions: read-out: Drug degradation.
A short description of data set [16]: Chemical stability in pH 7.4 PBS buffer assessed as compound degradation after 6 hrs by HPLC-MS/MS method. The conditions noted are these: read-out: Drug degradation. It is filed as physicochemical.
Data set [17] concerns Mycobacterium tuberculosis. The format is functional. Conditions: H37Rv ATCC 27294, 144 h.

Regarding `O=Cc1cccc(Oc2no[n+]([O-])c2-c2ccccc2)c1`, the MIC90 in data set [1] is > 62 µM. For the same molecule, the Activity in [2] was 23.1%.

As a reminder, the logP is a log measure of how a compound divides between an organic and an aqueous phase. In the case of `O=C(N/N=C/c1cccc(Oc2no[n+]([O-])c2-c2ccccc2)c1)c1ccncc1`, the MIC90 in [1] was > 62 µM. The Activity in data set [2] worked out at 6.87%. The logP in [3] came out at 2.9.

In turn, `CO[C@H]1/C=C/O[C@@]2(C)Oc3c(C)c(O)c4c(O)c(c(/C=N/N5CCN(C)CC5)c(O)c4c3C2=O)NC(=O)/C(C)=C\C=C\[C@H](C)[C@H](O)[C@@H](C)[C@@H](O)[C@@H](C)[C@H](OC(C)=O)[C@@H]1C` [RIFAMPIN] returned an MIC90 in [1] of 0.5 µM (≈ 0.411 µg/mL). The Activity in [2] stood at 0%.

Molecule `C/C(=N\NC(=S)Nc1ccccc1)c1ccccn1` gave an MIC90 in [4] of 15.6 µM (≈ 4.22 µg/mL).

The molecule `CN(C)c1ccc(/C=N/c2ccc(O)cc2)cc1` returned an MIC90 in data set [1] of 15.6 µM (≈ 3.75 µg/mL).

Consider `Cc1c(Oc2cccc(C=O)c2)no[n+]1[O-]`, for which the MIC90 in data set [1] was > 62 µM. In addition, in data set [2], the Activity amounted to 0%.

As for `NC(=O)c1c(CBr)no[n+]1[O-]`, the MIC90 in [1] was found to be 3 µM (≈ 0.666 µg/mL).

In general, IC50 refers to the point on the concentration scale where inhibition reaches its midpoint. A low value points to inhibition by little substance. With `O=Cc1ccccc1Oc1no[n+]([O-])c1S(=O)(=O)c1ccccc1`, in [1], the MIC90 was found to be 20.2 µM (≈ 7.01 µg/mL). Besides, the Activity in [2] was found to be 21.2%. The IC50 at 24 h in data set [5] was 7.4 µM. Also, the selectivity ratio in the data set “in vitro [6]” worked out at 0.4.

For `O=C(N/N=C/c1ccc(Oc2no[n+]([O-])c2-c2ccccc2)cc1)c1ccncc1`, the selectivity ratio in the data set “in vitro [7]” was 52.7; in the data set “in vitro [6]”, 34.8. In addition, the MIC90 in data set [1] was 11.8 µM (≈ 4.74 µg/mL); in data set [8] it was > 62 µM. Moreover, in data set [2], the Activity was found to be 7.33%. Besides, the IC50 at 24 h in data set [5] came out at 409 µM; in [9], 623 µM. In data set [3], this molecule came in with a logP of 2.9.

In turn, `NNC(=O)c1ccncc1` [ISONIAZID] returned an MIC90 in data set [1] of 0.11 µM (≈ 0.0151 µg/mL). Moreover, the Activity in data set [2] turned out to be 0%.

For `Cc1c(Oc2cccc(/C=N/NC(=O)c3ccncc3)c2)no[n+]1[O-]`, the MIC90 in data set [1] was > 62 µM. Also, the Activity in data set [2] is 0.16%. In data set [3], this molecule displayed a logP of 1.3.

In [1], `O=S(=O)(c1ccccc1)c1no[n+]([O-])c1-c1ccccc1` registered an MIC90 of 82 µM (≈ 24.8 µg/mL).

As for `O=Cc1ccccc1Oc1no[n+]([O-])c1-c1ccccc1`, the MIC90 in data set [1] is > 62 µM. The Activity in data set [2] came to 25.1%.

Regarding `O=C(N/N=C/c1ccccc1Oc1no[n+]([O-])c1-c1ccccc1)c1ccncc1`, the MIC90 in data set [1] was > 62 µM. Further, the Activity in data set [2] came to 11.2%. This molecule also registered a logP in [3] of 2.7.

`O=Cc1cccc(Oc2no[n+]([O-])c2S(=O)(=O)c2ccccc2)c1` displayed an MIC90 in data set [1] of 20.9 µM (≈ 7.23 µg/mL). For the same molecule, in data set [2], the Activity came out at 27.1%. Besides, the IC50 at 24 h in data set [5] was 5.6 µM. Also, the selectivity ratio in “in vitro [6]” turned out to be 2.

Turning to `Cc1c(Oc2ccccc2/C=N/NC(=O)c2ccncc2)no[n+]1[O-]`, in data set [1], the MIC90 was > 62 µM. For the same molecule, in data set [2], the Activity was found to be 0.35%. This molecule came in with a logP in data set [3] of 1.4.

In [10], `NC[C@H]1O[C@H](O[C@H]2[C@H](O)[C@@H](O[C@H]3O[C@H](CO)[C@@H](O)[C@H](N)[C@H]3O)[C@H](N)C[C@@H]2N)[C@H](O)[C@@H](O)[C@@H]1O` [KANAMYCIN] came in with an MIC90 of 3.4 µM (≈ 1.65 µg/mL).

Take `Cc1c(Oc2ccccc2C=O)no[n+]1[O-]`: the MIC90 in data set [1] is > 62 µM. Moreover, the Activity in [2] came out at 0%.

Take `O=C(N/N=C/c1ccc(O)cc1)c1ccncc1`: the MIC90 in data set [1] is 1.04 µM (≈ 0.251 µg/mL); in [10] it was 1 µM (≈ 0.241 µg/mL).

`CCN(CC)C(=S)NC(=O)c1ccco1` had an MIC90 in data set [1] of 25 µM (≈ 5.66 µg/mL).

Take `O=[N+]([O-])c1ccc(/C=N/c2ccc(O)cc2)cc1`: in data set [1], the MIC90 was 15.6 µM (≈ 3.78 µg/mL).

Regarding `NC(=O)c1cnccn1` [PYRAZINAMIDE], the MIC90 in data set [10] was > 48 µM.

For `CCCCN(CCCC)C(=S)NC(=O)c1ccccc1`, in data set [1], the MIC90 came out at 25 µM (≈ 7.31 µg/mL).

In [1], `CN(C)C(=S)NC(=O)c1ccccc1` registered an MIC90 of 25 µM (≈ 5.21 µg/mL).

`c1csc(-c2nc3ccccc3s2)c1` yielded an MIC90 in data set [1] of 50 µM (≈ 10.9 µg/mL).

Consider `O=C(NC(=S)N(c1ccccc1)c1ccccc1)c1ccccc1`, for which, in data set [1], the MIC90 was 25 µM (≈ 8.31 µg/mL).

Molecule `O=C(CC(=O)C(F)(F)F)c1cccs1` came in with an MIC90 in data set [1] of 10.9 µM (≈ 2.42 µg/mL).

Turning to `O=Cc1ccc(Oc2no[n+]([O-])c2S(=O)(=O)c2ccccc2)cc1`, the MIC90 in [1] came out at 26 µM (≈ 9.01 µg/mL). Also, the Activity in data set [2] was 24.4%. The IC50 at 24 h in data set [5] turned out to be 2.2 µM. For the same molecule, the selectivity ratio in the data set “in vitro [6]” was 0.1.

In [1], `COc1cc(/C=N/c2ccc(O)cc2)cc(OC)c1OC` yielded an MIC90 of 15.6 µM (≈ 4.48 µg/mL).

In the case of `O=C(N/N=C/c1ccccc1Oc1no[n+]([O-])c1S(=O)(=O)c1ccccc1)c1ccncc1`, the values for the selectivity ratio in the data set “in vitro [7]” and in the data set “in vitro [6]” were 3.78 and 1.25, respectively. For the same molecule, the MIC90 in data set [1] was 8.6 µM (≈ 4 µg/mL); in data set [8], > 62 µM. In addition, the Activity in data set [2] amounted to 44.2%. Moreover, the half-inhibitory concentration (IC50) at 24 h came out at 10.8 µM in [5] and 34.4 µM in data set [9]. In addition, the logP in data set [3] was 2.2.

In data set [1], `O=C(CC(=O)C(F)(F)F)c1ccccc1` yielded an MIC90 of 9.61 µM (≈ 2.08 µg/mL).

Take `O=C(N/N=C/c1ccc(Oc2no[n+]([O-])c2S(=O)(=O)c2ccccc2)cc1)c1ccncc1`: the selectivity ratio in the data set “in vitro [7]” is 20.3; in “in vitro [6]”, 12. The degraded at 24 h in data set [11] and in data set [14] was 20% throughout. Moreover, the figures for the degraded at 1 h in [12] and in data set [15] were 90% and 50%, respectively. The Stability result in data set [13] is recorded as “Stable”. Moreover, the MIC90 in [1] was 1.03 µM (≈ 0.479 µg/mL); in data set [8], > 62 µM. Besides, the Activity in data set [2] came to 43.5%. Further, the IC50 at 24 h in data set [5] is 10.8 µM; in data set [9], 43 µM. Also, the logP in [3] was determined as 2.1. Also, in [16], the degraded at 6 h was found to be 15%.

Molecule `O=C(N/N=C/c1cccc(O)c1)c1ccncc1` showed an MIC90 in data set [1] of 104 µM (≈ 25 µg/mL).

As to `O=C(N/N=C/c1cccc(Oc2no[n+]([O-])c2S(=O)(=O)c2ccccc2)c1)c1ccncc1`, the selectivity ratio in the data set “in vitro [7]” came to 14.1; in “in vitro [6]”, 3. The MIC90 is 1.61 µM (≈ 0.749 µg/mL) in data set [1] and > 62 µM in data set [8]. The Activity in data set [2] was found to be 38.5%. The figures for the IC50 at 24 h in [5] and in data set [9] were 4.3 µM and 30.1 µM, respectively. The logP in data set [3] stood at 2.3.

Take `CC(C)COC(=O)c1cnccn1`: the MIC90 in data set [17] was 2 µM (≈ 0.36 µg/mL).

`C/C(=N\NC(N)=S)c1ccccn1` registered an MIC90 in data set [4] of 31.3 µM (≈ 6.08 µg/mL).

`O=S(=O)(c1ccccc1)c1no[n+]([O-])c1S(=O)(=O)c1ccccc1` gave an MIC90 in data set [1] of 6.2 µM (≈ 2.27 µg/mL).

Consider `CNC(=S)N/N=C(\C)c1ccccn1`, for which, in data set [4], the MIC90 was 7.8 µM (≈ 1.62 µg/mL).

The molecule `O=C(N/N=C/c1ccccc1O)c1ccncc1` [SALINAZID] showed an MIC90 in data set [1] of 12.4 µM (≈ 3 µg/mL).

In [1], `COc1ccc(/C=N/CC/N=C/c2ccc(OC)cc2)cc1` returned an MIC90 of 25 µM (≈ 7.41 µg/mL).

Consider `N[C@@H]1CONC1=O` [CYCLOSERINE], for which the MIC90 in [10] came to 245 µM (≈ 25 µg/mL).

With `Cc1c(Oc2ccc(/C=N/NC(=O)c3ccncc3)cc2)no[n+]1[O-]`, the MIC90 in data set [1] was > 62 µM. Further, the Activity in data set [2] was determined as 2.02%. Further, the lipophilicity (logP) in data set [3] amounted to 1.3.

With `Cc1c(Oc2ccc(C=O)cc2)no[n+]1[O-]`, the MIC90 in data set [1] was > 62 µM. Besides, the Activity in data set [2] came to 0%.

For the molecule `O=[N+]([O-])O[C@H]1CO[C@H]2[C@@H]1OC[C@H]2O[N+](=O)[O-]` [ISOSORBIDE DINITRATE], the Activity in data set [2] lay in the range of 7.17 to 7.5 mol/mol.

With `O=Cc1ccc(Oc2no[n+]([O-])c2-c2ccccc2)cc1`, in [1], the MIC90 was > 62 µM. The Activity in data set [2] worked out at 19.4%.
